# Results reported in patent US6741954B2, “Selection method for odorants” (Symrise GmbH & Co. KG, priority 2000, dated 2004).
# Like-named read-outs stand apart in the source and are kept apart here.
# Assays:
# Assay type in all cases: physicochemical
# [1] = Headspace above the wet washed hair: relative partition parameter headspace/shampoo (SPME-GC)
# Description: (§1) The procedure is analogous in all examples.
# The example reflects the scent impression, which is perceived from freshly washed hair. The shampoo is prepared as is generally customary. The mixture of 39 odorants is incorporated into the above-mentioned shampoo (1st) in an amount of 1%. A hair tress (2.5 g) is washed in 100 ml of a 20% shampoo solution in water by immersing 5-10 times and stirring, and then rinsed in 100 ml of clear water by immersing it three times. The hair tress is carefully patted with thin cellulose. The moist hair tress is transferred to a 100 ml Erlenmeyer flask sealed with a septum and left to stand for 3 h. The headspace above the washed and rinsed hair tress is extracted over 15 min using solid phase microextraction (SPME). The SPME needle is desorbed in a GC injector, and a gas chromatogram is recorded. […] The analytical results are then used mathematically as described above.
# [2] = Headspace above the shampoo: relative partition parameter (SPME-GC); settings: log of amount in headspace relative to amount in shampoo; 1% odorant mixture, SPME 15 min
# Description: as §1
# The example reflects the scent impression, which is perceived from a freshly opened bottle of shampoo. The mixture of 39 odorants is incorporated into the above-mentioned shampoo (1) in an amount of 1%. 20 g of the shampoo are transferred to a 100 ml Erlenmeyer flask sealed with a septum. The headspace above the shampoo is extracted using a SPME over 15 min. […] The analytical results are then used mathematically as described above.
# [3] = Headspace above the soap bar: relative partition parameter (SPME-GC)
# Description: as §1
# The example reflects the scent impression, which is perceived from a fresh bar of soap. […] 20 g of the grated soap are transferred to a 100 ml Erlenmeyer flask sealed with a septum. The headspace above the shampoo is extracted using a SPME over 15 min. […] The analytical results are then used mathematically as described above.
# [4] = Headspace above the washing powder: relative partition parameter (SPME-GC)
# Description: as §1
# The example reflects the scent impression, which is perceived from a freshly opened pack of laundry detergent. The mixture of 39 odorants is incorporated in the above-mentioned washing powder in an amount of 0.5%. 20 g of the washing powder are transferred to a 100 ml Erlenmeyer flask sealed with a septum. The headspace above the shampoo is extracted using a SPME over 15 min. […] The analytical results are then used mathematically as described above.
# [5] = Headspace above the candle wax: relative partition parameter (SPME-GC); settings: log of amount in headspace relative to amount in candle wax; 5% odorant mixture, grated nonburning candle, SPME 15 min
# Description: as §1
# The example reflects the scent impression, which is perceived from a nonburning candle. The mixture of 39 odorants is incorporated into a candle in an amount of 5%. 20 g of the grated candle are transferred to a 100 ml Erlenmeyer flask sealed with a septum. The headspace above the candle is extracted using a SPME over 15 min. […] The analytical results are then used mathematically as described above.
# [6] = Headspace above the fresh gel room air freshener: relative partition parameter (SPME-GC); settings: log of amount in headspace relative to amount in gel; 5% odorant mixture, 10 liter vessel, 1 h, SPME 15 min
# Description: as §1
# The example reflects the scent impression, which is perceived above a fresh gel room air freshener. The mixture of 39 odorants is incorporated into an air freshener in an amount of 5%. 100 g of the air freshener are placed in its customary presentation form in a large sealed 10 liter vessel. The air freshener is left to stand for one hour. The headspace above the air freshener is extracted using a SPME over 15 min. […] The analytical results are then used mathematically as described above.
# [7] = Headspace above the solution of WC scented block cleaner: relative partition parameter (SPME-GC); settings: log of amount in headspace above 1% solution in water relative to amount in WC block; 1% odorant mixture, SPME 15 min
# Description: as §1
# The example reflects the scent impression, which is perceived from a WC scented block cleaner. The mixture of 39 odorants is incorporated into the toilet block in an amount of 1%. A 1% solution of the toilet block in water is prepared. 20 ml of this solution are transferred to a 100 ml Erlenmeyer flask sealed with a septum. The headspace above the shampoo is extracted by means of a SPME over 15 min. […] The analytical results are then used mathematically as described above.
# [8] = log of amount in headspace above wet washed hair relative to amount in shampoo, 1% odorant mixture, 3 h standing, SPME 15 min
# [9] = log of amount in headspace relative to amount in soap, 1.2% odorant mixture, grated soap, SPME 15 min
# [10] = log of amount in headspace relative to amount in washing powder, 0.5% odorant mixture, SPME 15 min
Compound,"Activity (logarithmic partition parameter above wet hair) [1, 8]",Activity (logarithmic partition parameter above shampoo) [2],"Activity (logarithmic partition parameter above soap) [3, 9]","Activity (logarithmic partition parameter above washing powder) [4, 10]",Activity (logarithmic partition parameter above candle wax) [5],Activity (logarithmic partition parameter above gel room air fresheners) [6],Activity (logarithmic partition parameter above dissolved WC scented block cleaners) [7],Activity (logarithmic partition parameter above wet hair) [1],Activity (logarithmic partition parameter above soap) [3],Activity (logarithmic partition parameter above washing powder) [4]
C=CC(C)(O)CCC=C(C)C (stereo not drawn) [Linalool],−1.119,−0.511,−0.028,0.057,−0.420,0.376,−1.299,–,–,–
CC(=O)OC(C)c1ccccc1 (stereo not drawn) [Styrolyl acetate],−1.029,−0.232,0.486,0.246,−0.341,0.568,−1.320,–,–,–
C=C1C2CCC(C2)C1(C)C (stereo not drawn) [Camphene],−0.721,0.777,0.392,0.357,0.783,−0.116,−1.348,–,–,–
CCOC(=O)c1ccccc1C(=O)OCC [Diethyl phthalate],–,–,−1.742,−2.124,−2.459,−2.303,–,–,–,–
Caryophyllene,–,−0.279,–,–,−1.062,−0.011,−0.390,−1.080,−0.150,−0.385
"OCCc1ccccc1 [PEA, phenylethyl alcohol]",−1.349,−0.742,0.170,−0.176,−0.632,0.245,−1.636,–,–,–
CC(C)CCOC(=O)c1ccccc1O [Isoamyl salicylate],−1.612,−1.716,−1.190,−1.467,–,−1.544,−0.870,–,–,–
O=C(OCc1ccccc1)c1ccccc1O [Benzyl salicylate],–,–,–,−2.349,–,–,−3.166,–,–,–
OCc1ccccc1 [Benzyl alcohol],−1.867,−0.759,−0.088,−0.389,−0.364,0.148,–,–,–,–
"CC(=O)OC(C)(C)Cc1ccccc1 [DMBCA, dimethylbenzylcarbinyl acetate]",−1.127,−0.513,0.059,−0.041,−0.856,0.125,−0.992,–,–,–
CC(=O)O[C@]1(C)CC[C@@]23C[C@@H]1C(C)(C)[C@@H]2CC[C@H]3C [Cedryl acetate],–,–,–,–,–,−2.566,−1.161,−2.685,−2.483,−1.971
CC(=O)O[C@@H]1C[C@H]2CC[C@]1(C)C2(C)C (racemic) [Isobornyl acetate],−0.741,−0.026,0.147,0.061,−0.588,0.392,−0.434,–,–,–
CC1=CCC2CC1C2(C)C (stereo not drawn) [alpha-Pinene],−0.776,0.769,0.395,0.377,0.819,−0.273,−1.833,–,–,–
CC(C=O)Cc1ccc(C(C)(C)C)cc1 (stereo not drawn) [Lilial],−2.089,−1.900,−1.331,−1.448,−2.105,−1.548,−1.400,–,–,–
C[C@@H]1CC[C@H]2C(C)(C)[C@H]3C[C@@]12CC[C@@]3(C)O [Cedrol],−2.475,–,−2.090,−1.547,–,−1.761,−1.348,–,–,–
CC(CC=O)CCCC(C)(C)O (stereo not drawn) [Hydroxycitronellal],−2.381,–,−1.804,−1.609,−1.869,−1.161,–,–,–,–
C=C(C)[C@H]1CC=C(C)CC1 [Limonene D],−0.183,0.965,0.748,–,–,0.062,−1.102,–,–,–
C=CCc1ccc(O)c(OC)c1 [Eugenol],−2.257,–,−1.435,−1.440,−0.822,−0.653,−2.412,–,–,–
"CCCCCC/C(C=O)=C\c1ccccc1 [Hexylcinnamaldehyde, alpha]",−2.690,–,−2.176,−1.559,–,–,−1.413,–,–,–
